Results: BigSolDB 2.1

`COc1cc(/C=C/C(=O)O)cc(OC)c1O` showed a solubility (mole fraction) (in DMSO, 298.15 K) of 0.148, a solubility (mole fraction) (in DMSO, 303.15 K) of 0.15 and a solubility (mole fraction) (in DMSO, 308.15 K) of 0.153. The solubility (mole fraction) (in DMSO, 313.15 K) was 0.156, the solubility (mole fraction) (in DMSO, 318.15 K) was 0.159 and the solubility (mole fraction) (in PEG-400, 298.15 K) was 0.0558. The solubility (mole fraction) (in PEG-400, 303.15 K) was 0.0616, the solubility (mole fraction) (in PEG-400, 308.15 K) was 0.0681 and the solubility (mole fraction) (in PEG-400, 313.15 K) was 0.0748. The solubility (mole fraction) (in PEG-400, 318.15 K) was 0.0834, the solubility (mole fraction) (in ethanol, 298.15 K) was 0.012 and the solubility (mole fraction) (in ethanol, 303.15 K) was 0.013. It also gave a solubility (mole fraction) (in ethanol, 308.15 K) of 0.0141, a solubility (mole fraction) (in ethanol, 313.15 K) of 0.0152 and a solubility (mole fraction) (in ethanol, 318.15 K) of 0.0164. The solubility (mole fraction) (in ethyl acetate, 298.15 K) was 0.00532, the solubility (mole fraction) (in ethyl acetate, 303.15 K) was 0.00627 and the solubility (mole fraction) (in ethyl acetate, 308.15 K) was 0.00764. It also gave a solubility (mole fraction) (in ethyl acetate, 313.15 K) of 0.00935, a solubility (mole fraction) (in ethyl acetate, 318.15 K) of 0.0109 and a solubility (mole fraction) (in ethylene glycol, 298.15 K) of 0.0059. For the same compound, the solubility (mole fraction) (in ethylene glycol, 303.15 K) was 0.00663, the solubility (mole fraction) (in ethylene glycol, 308.15 K) was 0.00748 and the solubility (mole fraction) (in ethylene glycol, 313.15 K) was 0.00843. For the same compound, the solubility (mole fraction) (in ethylene glycol, 318.15 K) was 0.00934, the solubility (mole fraction) (in isopropanol, 298.15 K) was 0.00213 and the solubility (mole fraction) (in isopropanol, 303.15 K) was 0.00222. The solubility (mole fraction) (in isopropanol, 308.15 K) was 0.00234, the solubility (mole fraction) (in isopropanol, 313.15 K) was 0.00245 and the solubility (mole fraction) (in isopropanol, 318.15 K) was 0.00257. For the same compound, the solubility (mole fraction) (in n-butanol, 298.15 K) was 0.00355, the solubility (mole fraction) (in n-butanol, 303.15 K) was 0.00429 and the solubility (mole fraction) (in n-butanol, 308.15 K) was 0.00529. The solubility (mole fraction) (in n-butanol, 313.15 K) was 0.00631, the solubility (mole fraction) (in n-butanol, 318.15 K) was 0.00729 and the solubility (mole fraction) (in propylene glycol, 298.15 K) was 0.00452. For the same compound, the solubility (mole fraction) (in propylene glycol, 303.15 K) was 0.0053, the solubility (mole fraction) (in propylene glycol, 308.15 K) was 0.00607 and the solubility (mole fraction) (in propylene glycol, 313.15 K) was 0.00708. It also gave a solubility (mole fraction) (in propylene glycol, 318.15 K) of 0.00811, a solubility (mole fraction) (in sec-butanol, 298.15 K) of 0.00409 and a solubility (mole fraction) (in sec-butanol, 303.15 K) of 0.00486. The solubility (mole fraction) (in sec-butanol, 308.15 K) was 0.00559, the solubility (mole fraction) (in sec-butanol, 313.15 K) was 0.00663 and the solubility (mole fraction) (in sec-butanol, 318.15 K) was 0.00761. It also gave a solubility (mole fraction) (in transcutol, 298.15 K) of 0.0298, a solubility (mole fraction) (in transcutol, 303.15 K) of 0.0324 and a solubility (mole fraction) (in transcutol, 308.15 K) of 0.0353. For the same compound, the solubility (mole fraction) (in transcutol, 313.15 K) was 0.0383, the solubility (mole fraction) (in transcutol, 318.15 K) was 0.0412 and the solubility (mole fraction) (in water, 298.15 K) was 6.22e-05. The solubility (mole fraction) (in water, 303.15 K) was 8.11e-05, the solubility (mole fraction) (in water, 308.15 K) was 0.000113 and the solubility (mole fraction) (in water, 313.15 K) was 0.000146. It also gave a solubility (mole fraction) (in water, 318.15 K) of 0.000188.
